Experimental data taken from paper PMC8010219, “Molecular basis for the interaction of cellular retinol binding protein 2 (CRBP2) with nonretinoid ligands” (Journal of Lipid Research, 2021).
Residue numbers refer to the chain shown, from its start. Where two headings read alike, the source gives them in different places.

Legend:
human CRBP2 [1] = biological target: T1, human CRBP2 (Homo sapiens, UniProt P50120); assay: X-ray crystal structures of CRBP2 in complex with ligands (enantiomer seen in binding pocket); details: racemic mixture used for crystallization
T1 construct: inferred from the Ni-NTA purification; made in house; host or cells: Escherichia coli BL21(DE3)
T1 sequence (P50120 1-134): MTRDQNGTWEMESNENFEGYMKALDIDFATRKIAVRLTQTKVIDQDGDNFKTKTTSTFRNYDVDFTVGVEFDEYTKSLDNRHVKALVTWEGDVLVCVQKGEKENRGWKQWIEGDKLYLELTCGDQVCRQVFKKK
Experimental: The crystallization conditions were identical to those published by Lee et al. ([9]). Human CRBP2 in complexes with nonretinoid ligands were crystallized using the sitting drop vapor diffusion method. Prior to setting up crystallization drops, CRBP2 (9 mg/ml) was incubated with 50 μM of ligand in 10 mM Tris-HCl (pH 8.0) and 150 mM NaCl for 20 min on ice. Protein samples were mixed in a 1:1 ratio with 1 μl of 0.1 M Tris-HCl (pH 8%) and 22–28% polyethylene glycol 3350. The wells were sealed and stored at room temperature. Crystals were collected, cryoprotected in 10% glycerol, 10% polyethylene glycol 2000 (v/v), and flash frozen in liquid nitrogen.
X-ray diffraction data were collected at the Advanced Photon Source Northeastern Collaborative Access Team 24-ID-C and 24-ID-E beamlines. Data reduction was performed using iMosflm software package ([17]). The structures were solved by molecular replacement with PHASER_MR ([18]) and the refined model of CRBP2 [Protein Data Bank (PDB) accession code: 6BTI] as a search model. Adjustments to the protein model were made with COOT ([19]), and the initial model was refined with PHENIX ([20]). […] The coordinates and structure factors for each of the structure analyzed in this report were deposited in the PDB under the following accession codes: 7JVG, 7JVY, 7JWD, 7JWR, 7K3I, 7JX2, and 7JZ5 (Table 2).

human CRBP2 [2] = biological target: T1, human CRBP2; parameters: method as in PMID 32195347; details: holo-CRBP2 titrated with ligand, cited from earlier work
human CRBP2 [3] = biological target: T1, human CRBP2; assay: Chromophore (atROL) replacement fluorescence titration of holo-CRBP2; assay type: binding; details: for Kd: holo-CRBP2 titrated with ligand, 25°C, pH 7.4, average of at least three independent titrations, mean ± SD; for fold decrease in affinity (increase in Kd) as compared with 2-AG: ratio of Kd values versus 2-AG
Experimental: (§1) The chromophore replacement assay was performed as described by Silvaroli et al. ([12]). CRBP2 in complex with atROL was excited with photons at a wavelength of 285 nm. Fluorescence emission was monitored at 350 and 480 nm. Titration with an alternative ligand causes liberation of atROL from the binding pocket and lack of fluorescence resonance energy transfer between the tryptophan residues and the retinoid moiety. The net effect is decrease in the fluorescence signal at 480 nm and concomitant increase at 350 nm (Fig. 1A, B). The experiments were performed on PerkinElmer Life Science LS55 spectrofluorometer at 25°C, using a 1 cm quart cuvette. Three microliters of buffer, 67 mM phosphate-buffered saline (pH 7.4%), 5% glycerol (v/v) containing 1 μg/ml of CRBP2 were dispensed into the cuvette. Increasing concentrations of tested compounds were delivered in acetonitrile. […] The obtained fluorescence spectra corrected for the background. Analysis of the changes in the maximum emission values at the different concentrations of ligands was used to calculate Kd values using the saturation single ligand binding model (SigmaPlot 11 software package; Systat Software). Each Kd listed in Table 1 represents an average value obtained from at least three independent titrations.

CRBP2^T51I/V62M = biological target: T2, CRBP2^T51I/V62M (Homo sapiens, UniProt P50120, T52I/V63M); assay: Chromophore (atROL) replacement fluorescence titration of the mutant protein; assay type: binding
T2 construct: made in house; host or cells: Escherichia coli BL21(DE3)
T2 sequence (P50120 1-134 T52I/V63M): T1 sequence (P50120 1-134) with T52I, V63M
Description: To introduce substitute mutations T51/I and V62/M, cDNA of CRBP2 was cloned into pCR 2.1 vector (Thermo Fisher Scientific). The mutations were introduced by PCR using 5’ phosphorylated primers of the following sequences: T51/I: forward, […]; reverse, […]; V62/M: forward, […]; reverse, […]. The presence of desired substitutions was verified by sequencing. To obtain mutated proteins, their cDNAs harboring these changes were cloned into pET3b vector and expressed and purified as described above.
as §1, with “cuvette.” for “cuvette. Increasing concentrations of tested compounds were delivered in acetonitrile.”, “Analysis of the changes in the maximum emission values at the different concentrations of ligands was used to calculate Kd values using the saturation single ligand binding model (SigmaPlot 11 software package; Systat Software). Each Kd listed in Table 1 represents an average value obtained from at least three independent titrations.” left out

CRBP1 = biological target: CRBP1; parameters: method as in PMID 27830500; details: atROL binding to CRBP1; cited from earlier work

| Compound | Kd (human CRBP2 [3]) [nM] | fold decrease in affinity (increase in Kd) as compared with 2-AG (human CRBP2 [3]) | also measured |
| --- | --- | --- | --- |
| CCCCC/C=C\C/C=C\C/C=C\C/C=C\CCCC(=O)OCC(O)CO (stereo not drawn) [1-AG, 1-Arachidonoyl glycerol] |  |  | enantiomer exclusively present in the binding pocket (electron density) (human CRBP2 [1]): S-enantiomer; Kd (human CRBP2 [2]): 37.9 ± 3.3 nM |
| CCCCC/C=C\C/C=C\C/C=C\C/C=C\CCCC(=O)SCC(O)CO (stereo not drawn) [1-ASG, Arachidonoyl-1-thio-glycerol] | 89.3 ± 14.3 |  | fold increase of the Kd value on substitution of the ester group with a thioester bond (human CRBP2 [3]; as compared with 1-AG): ~2 fold; enantiomer exclusively present in the binding pocket (electron density) (human CRBP2 [1]): R-enantiomer |
| CCCCCCCCCCCCCCCCCCCC(=O)OCC(O)CO (stereo not drawn) [1-ArG, 1-Arachidoyl glycerol] | 133 ± 33.1 | ~5 fold |  |
| CCCCCCCCCC(=O)OCC(O)CO (stereo not drawn) [1-DG, 1-Decanoyl glycerol] | 780 ± 86.5 | 29 fold |  |
| CCCCC/C=C\C/C=C\CCCCCCCC(=O)OCC(O)CO (stereo not drawn) [1-LG, 1-Linoleoyl glycerol] | 97.1 ± 27.6 |  |  |
| CCCCCCCCCCCCCCCCOCC(O)CO (stereo not drawn) [1-O-HG, 1-O-hexadecyl glycerol] | 153 ± 7.3 |  |  |
| CCCCC/C=C\C/C=C\C/C=C\C/C=C\CCCC(=O)OC(CO)CO [2-AG, 2-Arachidonoyl glycerol] |  |  | Kd (CRBP2^T51I/V62M; CRBP2 T51I/V62M double mutant): 447 ± 46.1 nM; fold decrease in the affinity at the mutant (CRBP2^T51I/V62M; CRBP2^T51I/V62M versus WT CRBP2): over 16 fold; Kd (human CRBP2 [2]): 27.1 ± 2.5 nM |
| CCCCC/C=C\C/C=C\C/C=C\C/C=C\CCCCOC(CO)CO [2-AGE, 2-Arachidonoyl glycerol ether] | 45.7 ± 2.7 |  |  |
| CCCCC/C=C\C/C=C\CCCCCCCC(=O)OC(CO)CO [2-LG, 2-Linoleoyl glycerol] |  |  | Kd (human CRBP2 [2]; read-out: Kd): 40 ± 4.4 nM |
| CCCCCCCCCCCC(=O)OC(CO)CO [2-LaG, 2-Lauroyl glycerol] | 172 ± 8.8 | over 6 fold |  |
| CCCCCCCC/C=C\CCCCCCCC(=O)OC(CO)CO [2-OG, 2-Oleoyl glycerol] |  |  | Kd (human CRBP2 [2]; read-out: Kd): 65.4 ± 4.4 nM |
| CCCCCCCCCCCCCCCC(=O)OC(CO)CO [2-PG, 2-Palmitoyl glycerol] | 51.2 ± 7.7 |  |  |
| CCCCCCCCCCCCCCCCCC(=O)OC(CO)CO [2-SG, 2-Stearoyl glycerol] | 54.8 ± 9.8 | 2 fold |  |
| CCCCC/C=C\C/C=C\C/C=C\C/C=C\CCCCCC(=O)O [ADA, Docosatetraenoic acid] | 217 ± 14.4 | eight times higher |  |
| CCCCC/C=C\C/C=C\C/C=C\C/C=C\CCCC(=O)NCCO [AEA, Arachidonoyl ethanolamide] |  | ~25 fold | Kd (human CRBP2 [2]; read-out: Kd): 663 ± 24 nM |
| CC1=C(/C=C/C(C)=C/C=C/C(C)=C/CO)C(C)(C)CCC1 [atROL, all-trans-retinol] |  |  | Kd (CRBP1): ~10 nM |
